From the NIST ThermoML archive (doi:10.1016/j.fluid.2015.07.030)

Assay: refractive index (other wavelength) (dimensionless); xn = mol fraction of the nth substance listed
Conditions: 95.99 kPa, Liquid, Standard Abbe refractometry

OCCOCCOCCO [triethylene glycol] + O
refractive index
Conditions	Wavelength=404.7 nm	Wavelength=435.8 nm	Wavelength=486.1 nm	Wavelength=546.1 nm	Wavelength=587.6 nm	Wavelength=589.3 nm	Wavelength=632.8 nm	Wavelength=644 nm	Wavelength=706.5 nm
293.15 K, x2 = 0	1.46928	1.46569	1.46151	1.45803	1.45619	1.45612	1.45455	1.4542	1.45248
293.15 K, x2 = 0.1056	1.46776	1.46418	1.46003	1.45656	1.45474	1.45467	1.45311	1.45275	1.45102
293.15 K, x2 = 0.2069	1.46585	1.46229	1.45817	1.45473	1.45293	1.45286	1.45131	1.45095	1.44922
293.15 K, x2 = 0.3104	1.46244	1.45892	1.45478	1.45137	1.44957	1.4495	1.44796	1.4476	1.44588
293.15 K, x2 = 0.4844	1.45861	1.45514	1.45102	1.44764	1.44586	1.4458	1.44426	1.44391	1.44221
293.15 K, x2 = 0.5016	1.45756	1.45412	1.45	1.44663	1.44485	1.44479	1.44326	1.44291	1.44121
293.15 K, x2 = 0.5952	1.45069	1.44731	1.44328	1.43997	1.4382	1.43814	1.43663	1.43669	1.4346
293.15 K, x2 = 0.6016	1.45072	1.44734	1.44332	1.44002	1.43827	1.43821	1.4367	1.43635	1.43464
293.15 K, x2 = 0.6788	1.44395	1.4406	1.4367	1.43344	1.43171	1.43165	1.4301	1.42981	1.42813
293.15 K, x2 = 0.7835	1.4342	1.43091	1.42716	1.42397	1.4223	1.42224	1.42078	1.42043	1.41874
293.15 K, x2 = 0.8184	1.42884	1.42558	1.42185	1.41872	1.41706	1.417	1.41555	1.4152	1.41353
293.15 K, x2 = 0.8473	1.42267	1.41949	1.41582	1.41276	1.41114	1.41108	1.40964	1.4093	1.40762
293.15 K, x2 = 0.8719	1.41529	1.41214	1.40852	1.40547	1.40386	1.4038	1.40238	1.40204	1.40038
293.15 K, x2 = 0.8926	1.40703	1.40391	1.40033	1.39734	1.39576	1.3957	1.3943	1.39396	1.39232
293.15 K, x2 = 0.9106	1.40148	1.39844	1.39495	1.392	1.39044	1.39038	1.38899	1.38865	1.387
293.15 K, x2 = 0.9254	1.39081	1.38783	1.38446	1.38156	1.38004	1.37998	1.3786	1.37827	1.37665
293.15 K, x2 = 0.9303	1.39206	1.38905	1.38562	1.38273	1.3812	1.38114	1.37976	1.37942	1.37778
293.15 K, x2 = 0.9391	1.38808	1.38514	1.38176	1.37891	1.37736	1.37731	1.37592	1.37559	1.37396
293.15 K, x2 = 0.951	1.38101	1.37811	1.37479	1.37198	1.37045	1.37039	1.36903	1.36871	1.36871
293.15 K, x2 = 0.9599	1.37477	1.37194	1.36866	1.36589	1.36436	1.36431	1.36296	1.36264	1.36106
293.15 K, x2 = 0.9708	1.36673	1.36396	1.36077	1.35803	1.35657	1.35652	1.3552	1.35488	1.35328
293.15 K, x2 = 0.979	1.36151	1.35879	1.35566	1.35294	1.35147	1.35142	1.35011	1.3498	1.34824
293.15 K, x2 = 0.9867	1.35527	1.35259	1.34949	1.34676	1.34532	1.34526	1.34398	1.34367	1.3421
293.15 K, x2 = 0.9936	1.34883	1.34624	1.34314	1.34052	1.33907	1.33902	1.33774	1.33744	1.33593
298.15 K, x2 = 0	1.46749	1.4639	1.45975	1.45629	1.45447	1.4544	1.45284	1.45249	1.45075
298.15 K, x2 = 0.1056	1.46604	1.46248	1.45834	1.45488	1.45307	1.453	1.45145	1.45109	1.44937
298.15 K, x2 = 0.2069	1.46428	1.46074	1.45661	1.45318	1.45138	1.45132	1.44978	1.44942	1.44768
298.15 K, x2 = 0.3104	1.46096	1.45745	1.45333	1.44993	1.44814	1.44807	1.44653	1.44617	1.44445
298.15 K, x2 = 0.4844	1.45699	1.45354	1.44943	1.44606	1.44428	1.44422	1.44269	1.44234	1.44065
298.15 K, x2 = 0.5016	1.45596	1.45252	1.44841	1.44506	1.44328	1.44322	1.44169	1.44134	1.43966
298.15 K, x2 = 0.5952	1.44911	1.44572	1.44171	1.43842	1.43668	1.43661	1.4351	1.43475	1.43307
298.15 K, x2 = 0.6016	1.44913	1.44575	1.44175	1.43845	1.43673	1.43666	1.43516	1.43481	1.4331
298.15 K, x2 = 0.6788	1.44244	1.43909	1.43522	1.43197	1.43025	1.43019	1.4287	1.42835	1.42668
298.15 K, x2 = 0.7835	1.43274	1.42946	1.42571	1.42254	1.42088	1.42082	1.41936	1.41901	1.41733
298.15 K, x2 = 0.8184	1.42742	1.42417	1.42045	1.41732	1.41568	1.41562	1.41417	1.41382	1.41213
298.15 K, x2 = 0.8473	1.42101	1.41783	1.41417	1.41108	1.40947	1.40941	1.40798	1.40763	1.40596
298.15 K, x2 = 0.8719	1.41326	1.41082	1.40723	1.40421	1.40261	1.40255	1.40113	1.40079	1.39912
298.15 K, x2 = 0.8926	1.40601	1.40293	1.3994	1.39645	1.39488	1.39482	1.39343	1.3931	1.39147
298.15 K, x2 = 0.9106	1.40032	1.39727	1.39379	1.39086	1.3893	1.38924	1.38785	1.38752	1.38588
298.15 K, x2 = 0.9254	1.38959	1.38664	1.3833	1.38042	1.37889	1.37884	1.37748	1.37714	1.37553
298.15 K, x2 = 0.9303	1.39111	1.38813	1.38472	1.38187	1.38035	1.38029	1.37892	1.37859	1.37697
298.15 K, x2 = 0.9391	1.38696	1.38402	1.38066	1.37781	1.37628	1.37622	1.37485	1.37452	1.3729
298.15 K, x2 = 0.951	1.38004	1.37716	1.37385	1.37104	1.36953	1.36947	1.36812	1.3678	1.3662
298.15 K, x2 = 0.9599	1.374	1.37117	1.36797	1.36514	1.36364	1.36359	1.36225	1.36139	1.36035
298.15 K, x2 = 0.9708	1.36592	1.36317	1.35998	1.35727	1.35581	1.35576	1.35444	1.35412	1.35254
298.15 K, x2 = 0.979	1.36072	1.35801	1.35488	1.35218	1.35072	1.35066	1.34937	1.34905	1.34751
298.15 K, x2 = 0.9867	1.35466	1.35198	1.34888	1.34617	1.34473	1.34467	1.3434	1.34308	1.34153
298.15 K, x2 = 0.9936	1.34824	1.34565	1.34258	1.33995	1.33852	1.33847	1.3372	1.3369	1.3354
303.15 K, x2 = 0	1.4657	1.46213	1.45796	1.45455	1.45273	–	–	–	–
303.15 K, x2 = 0.1056	1.4643	1.46075	1.4566	1.45317	1.45138	–	–	–	–
303.15 K, x2 = 0.2069	1.46262	1.4591	1.45496	1.45155	1.44975	–	–	–	–
303.15 K, x2 = 0.3104	1.45889	1.45541	1.45129	1.4479	1.44612	–	–	–	–
303.15 K, x2 = 0.4844	1.45533	1.4519	1.4478	1.44445	1.44268	–	–	–	–
303.15 K, x2 = 0.5016	1.45432	1.4509	1.44681	1.44347	1.4417	–	–	–	–
303.15 K, x2 = 0.5952	1.44749	1.44412	1.44014	1.43687	1.43513	–	–	–	–
303.15 K, x2 = 0.6016	1.44759	1.44421	1.44025	1.43697	1.43525	–	–	–	–
303.15 K, x2 = 0.6788	1.44091	1.43757	1.4337	1.43047	1.42877	–	–	–	–
303.15 K, x2 = 0.7835	1.4314	1.4281	1.42435	1.42118	1.41951	–	–	–	–
303.15 K, x2 = 0.8184	1.42604	1.4228	1.4191	1.41598	1.41434	–	–	–	–
303.15 K, x2 = 0.8473	1.41954	1.41636	1.41271	1.40964	–	–	–	–	–
303.15 K, x2 = 0.8719	1.41258	1.40944	1.40585	1.40283	–	–	–	–	–
303.15 K, x2 = 0.8926	1.4048	1.40173	1.39821	1.39527	–	–	–	–	–
303.15 K, x2 = 0.9106	1.39915	1.39612	1.39265	1.38973	–	–	–	–	–
303.15 K, x2 = 0.9254	1.38867	1.38572	1.38237	1.37951	–	–	–	–	–
303.15 K, x2 = 0.9303	1.38901	1.38707	1.38371	1.38085	–	–	–	–	–
303.15 K, x2 = 0.9391	1.38606	1.38312	1.37974	1.37691	–	–	–	–	–
303.15 K, x2 = 0.951	1.37929	1.37641	1.37311	1.3703	–	–	–	–	–
303.15 K, x2 = 0.9599	1.37327	1.37045	1.36721	1.36443	–	–	–	–	–
303.15 K, x2 = 0.9708	1.3651	1.36235	1.3592	1.35648	–	–	–	–	–
303.15 K, x2 = 0.979	1.36001	1.3573	1.35419	1.3515	–	–	–	–	–
303.15 K, x2 = 0.9867	1.3539	1.35126	1.34816	1.3455	–	–	–	–	–
303.15 K, x2 = 0.9936	1.3476	1.34502	1.34197	1.33934	–	–	–	–	–
